What follows are substances tested against T1, SH3-2 domain of NCK1 (Homo sapiens, UniProt P16333) (assay: Isothermal titration calorimetry (ITC) binding to NCK1 SH3-2 domain). Conditions: substitutions at position 3 of MD18; ITC, 25 °C, pH 8.0.
T1 construct: To amplify the NCK1 SH3-2 domain, the primers; 10xHis tag with TEV site (vector pSF-OXB20-NH2-10HIS) (N, cleaved yes); made in house; host or cells: E. coli C43(DE3)
Text: Human PTP1B cDNA (NM_002827) and human NCK1 cDNA (NM 006153) were obtained (Origene, MD, USA). PTP1B Primers were designed to amplify the ORFs with added homology to the cut vector (EcoRI-digested pSF-OXB20-NH2-10HIS) in the forward primer sequence. To amplify full-length PTP1B, the primers ptp1b_FL_fwd ([…]) (SEQ ID NO: 159) and ptp1b_FL_rev ([…]) (SEQ ID NO: 160) were used. To amplify truncations of PTP1B, the following primer pairs were used: ptp1b_FL-Fwd and one of Ptplb_323stop_rev (gtgcaggaggagttcgaatt[…]) (SEQ ID NO: 161), ptp1b_344stop_rev ([…]) (SEQ ID NO: 162) or ptp1b_278stop_rev([…]) (SEQ ID NO: 163). To amplify the NCK1 SH3-2 domain, the primers ncklsh32_fwd ([…]) (SEQ ID NO: 164) and ncklsh32_rev ([…]) (SEQ ID NO: 165) were used. The amplified fragments were purified using a DNA clean-up kit according to manufacturer's instructions (QIAquick PCR purification kit, Qiagen).
To produce and purify fusion proteins, a culture was inoculated with 1% of overnight-cultured inoculum. Protein expression was carried out under the conditions described above, scaled up as necessary. Cells expressing the recombinant proteins were harvested in 50 mL tubes by centrifugation and stored at −80 °C. Cells containing the expressed gene product were thawed over ice and resuspended in Extraction buffer (10 mM Tris, pH 7.4 or 10 mM Sodium Phosphate, pH 8.0; 300 mM NaCl, 1 mM DTT or TCEP; 0-10% glycerol and 1 μg lysozyme) and sonicated over ice (4 °C) for 3 min total using pulses of 5 s with 15 s intervals, using a wide probe at 15 amplitude microns (Soniprep 150, MSE). Insoluble material was removed from the lysate by centrifugation at 20K rpm for 20-60 min at 4 °C. Supernatant was filtered through a 0.22 μm PVDF filter membrane and applied to 1-2 5 mL HisTrap FF Crude (Cytiva) prepacked Ni columns and connected to an AKTA explorer. After thorough washing with binding buffer (10 mM Tris, pH 7.4 or 10 mM Sodium Phosphate, pH 8.0; 300 mM NaCl; 1 mM DTT or TCEP and 25 mM Imidazole), protein was eluted using elution buffer (10 mM Tris, pH 7.4 or 10 mM Sodium Phosphate, pH 8.0; 150-300 mM NaCl; 1 mM DTT or TCEP and 250 mM Imidazole). Fractions containing protein of interest were confirmed by SDS PAGE. Protein was diluted with GF buffer (10 mM Tris, pH 7.4 or 10 mM Sodium Phosphate, pH 8.0; 150-300 mM NaCl) and subjected to TEV protease treatment overnight at 4-10 °C. Following proteolytic digestion, HIS-tag and TEV protease were removed by filtration through a clean 5 mL HisTrap FF Crude (Cytiva) prepacked Ni column. Protein was concentrated on a PES ultrafiltration device by centrifugation at 4000 rpm at 4 °C, and protein was polished via a HiPrep S-100 26/60 (Cytiva) using GF buffer (as described above). Purified proteins were concentrated using ultrafiltration, and protein concentration was determined using ultraviolet-visible spectroscopy. The integrity and identity of all proteins were verified by mass spectrographic analysis.
Isothermal titration calorimetry (ITC) was used to determine binding affinities for peptides against the SH3-2 domain of NCK1. Experiments were conducted at 25 °C using either a MicroCal iTC200 or MicroCal PEAQ-ITC calorimeter. The buffer used for all ITC experiments was 10 mM sodium [COMPOUND LEFT OUT] mM sodium chloride (pH=8.0). A series of peptides (concentration 3-7.5 mM) were titrated in to NCK1 SH3-2 domain (concentration 0.125-0.3 mM) using the following conditions: one injection of 0.2 μL followed by 19 injections of 2 μL, 120-150 seconds spacing between injections, at 25 °C. The data were fit using analysis software provided by the manufacturer and affinity values were calculated. The best fitting occurred when the number of sites was between 0.8 and 1.2. The experiments were repeated twice for a total of three times, and the average binding affinity for each peptide was generated. […]

Row | Kd [µM] | Substance
1 | 300 to 600 | Ac-PPWPPKR-NH2 [MH056, Ac-PPWPPKR-NH2]
2 | ≤ 300 | Ac-PPLPPKR-NH2 [MH100, Ac-PPLPPKR-NH2]
3 | ≤ 300 | Ac-PPQPPKR-NH2 [MH087, Ac-PPQPPKR-NH2]
4 | ≤ 300 | Ac-PPTPPKR-NH2 [MH114, Ac-PPTPPKR-NH2]
5 | ≤ 300 | Ac-PPYPPKR-NH2 [MH120, Ac-PPYPPKR-NH2]
6 | ≤ 300 | Ac-PPIPPKR-NH2 [MH096, Ac-PPIPPKR-NH2]

Same assay, conditions: substitutions at position 4 of MD18 in a 7-mer; ITC, 25 °C, pH 8.0

Row | Substance | Kd [µM]
7 | Ac-PPRLPKR-NH2 [MH101, Ac-PPRLPKR-NH2] | 300 to 600
8 | Ac-PPRRPKR-NH2 [MH062, Ac-PPRRPKR-NH2] | 300 to 600
9 | Ac-PPRWPKR-NH2 [MH118, Ac-PPRWPKR-NH2] | > 1000
10 | Ac-PPRSPKR-NH2 [MH108, Ac-PPRSPKR-NH2] | > 1000
11 | Ac-PPRYPKR-NH2 [MH121, Ac-PPRYPKR-NH2] | 300 to 600

Second part, the substance after the results:

Row | Kd [µM] | Substance
12 | > 1000 | Ac-PPRDPKR-NH2 [MH128, Ac-PPRDPKR-NH2]
13 | > 1000 | Ac-PPRQPKR-NH2 [MH131, Ac-PPRQPKR-NH2]
14 | > 1000 | Ac-PPRNPKR-NH2 [MH127, Ac-PPRNPKR-NH2]
15 | > 1000 | Ac-PPRCPKR-NH2 [MH129, Ac-PPRCPKR-NH2]

Same assay, conditions: substitutions at position 6 of MD18; ITC, 25 °C, pH 8.0

Row | Kd [µM] | Substance
16 | ≤ 300 | Ac-PPRPPLR-NH2 [MH102, Ac-PPRPPLR-NH2]
17 | ≤ 300 | Ac-PPRPPCR-NH2 [MH054, Ac-PPRPPCR-NH2]
18 | ≤ 300 | Ac-PPRPPYR-NH2 [MH122, Ac-PPRPPYR-NH2]
19 | ≤ 300 | Ac-PPRPPRR-NH2 [MH048, Ac-PPRPPRR-NH2]
20 | 600 to 1000 | Ac-PPRPPGR-NH2 [MH094, Ac-PPRPPGR-NH2]
21 | ≤ 300 | Ac-PPRPPWR-NH2 [MH050, Ac-PPRPPWR-NH2]
22 | ≤ 300 | Ac-PPRPPNR-NH2 [MH053, Ac-PPRPPNR-NH2]
23 | 300 to 600 | Ac-PPRPPDR-NH2 [MH085, Ac-PPRPPDR-NH2]
24 | 300 to 600 | Ac-PPRPPFR-NH2 [MH105, Ac-PPRPPFR-NH2]
25 | ≤ 300 | Ac-PPRPPTR-NH2 [MH116, Ac-PPRPPTR-NH2]
26 | ≤ 300 | Ac-PPRPPER-NH2 [MH051, Ac-PPRPPER-NH2]
27 | ≤ 300 | Ac-PPRPPPR-NH2 [MH107, Ac-PPRPPPR-NH2]
28 | ≤ 300 | Ac-PPRPPIR-NH2 [MH098, Ac-PPRPPIR-NH2]
29 | ≤ 300 | Ac-PPRPPQR-NH2 [MH088, Ac-PPRPPQR-NH2]

Same assay, conditions: substitutions at position 8 of the 8-mer MH063; ITC, 25 °C, pH 8.0; certain peptides tested one to three times

Row | Kd [µM] | Substance
30 | ≤ 300 | Ac-PPRPPKRR-NH2 [MH139]
31 | ≤ 300 | Ac-PPRPPKRS-NH2 [MH152]
32 | ≤ 300 | Ac-PPRPPKRF-NH2 [MH150]
33 | ≤ 300 | Ac-PPRPPKRG-NH2 [MH145]
34 | ≤ 300 | Ac-PPRPPKRH-NH2 [MH146]
35 | ≤ 300 | Ac-PPRPPKRA-NH2 [MH138]
36 | ≤ 300 | Ac-PPRPPKRC-NH2 [MH142]
37 | ≤ 300 | Ac-PPRPPKRY-NH2 [MH155]

From patent US20260365696A1, “INHIBITORS OF PTP1B / NCK1 INTERACTION AND METHODS OF MAKING AND USING SAME” (Radella Pharmaceuticals LLC, priority 2023, published 2026)
